The values below come from US20200085791A1, “[(PHENYLSULFONYL)OCTAHYDRO-EPIMINOISOINDOL-YL](1H-1,2,3-TRIAZOL-5-YL)METHANONES” (Bayer Pharma Aktiengesellschaft, priority 2016, published 2020).

The target in this experiment is T1, recombinant human AKR1C3 (Aldo-keto reductase family 1 member C3) (Homo sapiens, UniProt P42330).
T1 construct: GST (cleaved yes); made in house; host or cells: E. coli
T1 sequence (P42330 1-323): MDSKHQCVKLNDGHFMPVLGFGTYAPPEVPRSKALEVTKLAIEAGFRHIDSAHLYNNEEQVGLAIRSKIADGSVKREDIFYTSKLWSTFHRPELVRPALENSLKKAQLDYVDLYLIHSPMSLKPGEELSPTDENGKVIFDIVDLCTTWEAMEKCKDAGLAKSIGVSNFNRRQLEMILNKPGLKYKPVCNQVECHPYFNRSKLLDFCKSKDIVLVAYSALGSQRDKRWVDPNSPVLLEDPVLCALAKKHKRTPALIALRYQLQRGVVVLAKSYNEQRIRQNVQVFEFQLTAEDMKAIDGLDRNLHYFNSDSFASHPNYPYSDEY
The experiment in a line: In Vitro Assay 1: AKR1C3-inhibitory activity (Coumberone to Coumberol fluorescence assay). Type of experiment: biochemical. The following applies: recombinant enzyme, Coumberone 0.3 μM, NADPH 10 μM, 15 min pre-incubation, 4-parameter fit; average or median values. As to the method:
In Vitro Assay 1: AKR1C3-Inhibitory Activity
The AKR1C3-inhibitory activity of the substances of the present invention was measured in the AKR1C3 assay described in the paragraphs below.
Essentially, the enzyme activity is measured by quantification of the Coumberol from Coumberone (Halim, M., Yee, D. J., and Sames, D., J. AM. CHEM. SOC. 130, 14123-14128 (2008) and Yee, D. J., Balsanek, V., Bauman, D. R., Penning, T. M., and Sames, D., Proc. Natl. Acad. Sci. USA 103, 13304-13309 (2006)). In this test, the increase of the highly fluorescent Coumberol by NADPH- (nicotinamide adenine dinucleotide phosphate)-dependent reduction of the non-fluorescent Coumberone by AKR1C3 can be determined.
The enzyme used was recombinant human AKR1C3 (Aldo-keto reductase family 1 member C3) (GenBank Accession No. NM_003739). This was expressed in E. coli as GST (glutathione S transferase) fusion protein and purified by glutathione Sepharose affinity chromatography. The GST was removed by digestion with thrombin and subsequent size exclusion chromatography (Dufort, I., Rheault, P., Huang, X F., Soucy, P., and Luu-The, V., Endocrinology 140, 568-574 (1999)).
For the assay, 50 nl of a 100-fold concentrated solution of the test substance in DMSO were pipetted into a black low-volume 384-well microtiter plate (Greiner Bio-One, Frickenhausen, Germany), 2.5 μl of a solution of AKR1C3 in assay buffer [50 mM potassium phosphate buffer pH 7, 1 mM DTT, 0.0022% (w/v) Pluronic F-127, 0.01% BSA (w/v) and protease inhibitor cocktail (Complete, EDTA-free Protease Inhibitor Cocktail from Roche)] were added and the mixture was incubated for 15 min to allow pre-binding of the substances to the enzyme prior to the enzyme reaction. The enzyme reaction was then started by addition of 2.5 μl of a solution of NADPH (20 μM→final concentration in 5 μl of assay volume is 10 μM) and Coumberone (0.6 μM→final concentration in 5 μl of assay volume is 0.3 μM) in assay buffer, and the resulting mixture was incubated at […] for the reaction time of typically 90 min. The concentration of the AKR1C3 and the reaction time was adapted to the respective activity of the enzyme preparation and adjusted such that the assay was carried out in the linear range.
Typical AKR1C3 concentrations were in the region of 1 nM. The reaction was stopped by addition of 2.5 μl of a stop solution consisting of the inhibitor EM-1404 [F. Labrie et al. U.S. Pat. No. 6,541,463, 2003] (3 μM→final concentration in 7.5 μl of assay volume is 1 μM). The fluorescence of the Coumberole was then measured at 520 nm (excitation at 380 nm) using a suitable measuring instrument (Pherastar from BMG Labtechnologies). The intensity of the fluorescence was used as a measure of the amount of Coumberole formed and thus of the enzyme activity of AKR1C3. The data were normalized (enzyme reaction without inhibitor—0% inhibition; all other assay components, but no enzyme=100% inhibition).
The IC50 is the concentration that gives 50% inhibition. Consider `Nc1cccc(S(=O)(=O)N2[C@@H]3CC[C@H]2[C@@H]2CN(C(=O)c4cnn[nH]4)C[C@@H]23)c1` [Example 69, {(3aR,4R,7S,7aS)-8-[(3-aminophenyl)sulfonyl]octahydro-2H-4,7-epiminoisoindol-2-yl}(1H-1,2,3-triazol-5-yl)methanone], for which the IC50 worked out at 0.735 µM.

Regarding `N#Cc1ccc(S(=O)(=O)N2[C@@H]3CC[C@H]2[C@@H]2CN(C(=O)c4cnn[nH]4)C[C@@H]23)cc1` [Example 43, 4-{[(3aR,4R,7S,7aS)-2-(1H-1,2,3-triazol-5-ylcarbonyl)octahydro-1H-4,7-epiminoisoindol-8-yl]sulfonyl}benzonitrile], the IC50 is 0.855 µM.

Turning to `N#Cc1cc(S(=O)(=O)N2[C@@H]3CC[C@H]2[C@@H]2CN(C(=O)c4cnn[nH]4)C[C@@H]23)ccc1F` [Example 50, 2-fluoro-5-{[(3aR,4R,7S,7aS)-2-(1H-1,2,3-triazol-5-ylcarbonyl)octahydro-1H-4,7-epiminoisoindol-8-yl]sulfonyl}benzonitrile], the IC50 was found to be 0.999 µM.

In the case of `O=C(c1cnn[nH]1)N1C[C@@H]2[C@H](C1)[C@H]1CC[C@@H]2N1S(=O)(=O)c1cc(Cl)ccc1F` [Example 51, {(3aR,4R,7S,7aS)-8-[(5-chloro-2-fluorophenyl)sulfonyl]octahydro-2H-4,7-epiminoisoindol-2-yl}(1H-1,2,3-triazol-5-yl)methanone], the IC50 was determined as 0.003 µM.

In the case of `O=C(c1cnn[nH]1)N1C[C@@H]2[C@H](C1)[C@H]1CC[C@@H]2N1S(=O)(=O)c1cccc([N+](=O)[O-])c1` [Example 33, {(3aR,4R,7S,7aS)-8-[(3-nitrophenyl)sulfonyl]octahydro-2H-4,7-epiminoisoindol-2-yl}(1H-1,2,3-triazol-5-yl)methanone], the IC50 stood at 0.174 µM.

Take `COc1ccccc1S(=O)(=O)N1[C@@H]2CC[C@H]1[C@H]1CN(C(=O)c3c[nH]nn3)C[C@H]12` [Example 15, {(3aR,4S,7R,7aS)-8-[(2-methoxyphenyl)sulfonyl]octahydro-2H-4,7-epiminoisoindol-2-yl}(1H-1,2,3-triazol-4-yl)methanone]: the IC50 was 0.045 µM.

With `N#Cc1ccc(Cl)c(S(=O)(=O)N2[C@@H]3CC[C@H]2[C@@H]2CN(C(=O)c4cnn[nH]4)C[C@@H]23)c1` [Example 67, 4-chloro-3-{[(3aR,4R,7S,7aS)-2-(1H-1,2,3-triazol-5-ylcarbonyl)octahydro-1H-4,7-epiminoisoindol-8-yl]sulfonyl}benzonitrile], the IC50 came to 0.033 µM.

With `O=C(c1cnn[nH]1)N1C[C@@H]2[C@H](C1)[C@@H]1CC[C@H]2N1S(=O)(=O)c1ccc(F)c(F)c1` [Example 25, {(3aR,4S,7R,7aS)-8-[(3,4-difluorophenyl)sulfonyl]octahydro-2H-4,7-epiminoisoindol-2-yl}(1H-1,2,3-triazol-5-yl)methanone], the IC50 came out at 0.132 µM.

Consider `O=C(c1c[nH]nn1)N1[C@@H]2CC[C@H]1[C@H]1CN(S(=O)(=O)c3cccc(S(F)(F)(F)(F)F)c3)C[C@H]12` [Example 10, [(3aR,4S,7R,7aS)-2-{[3-(pentafluoro-λ^6-sulfanyl)phenyl]sulfonyl}octahydro-1H-4,7-epiminoisoindol-8-yl](1H-1,2,3-triazol-4-yl)methanone], for which the half-maximal inhibitory concentration (IC50) worked out at 0.121 µM.

With `Cc1ccccc1S(=O)(=O)N1[C@@H]2CC[C@H]1[C@H]1CN(C(=O)c3c[nH]nn3)C[C@H]12` [Example 16, {(3aR,4S,7R,7aS)-8-[(2-methylphenyl)sulfonyl]octahydro-2H-4,7-epiminoisoindol-2-yl}(1H-1,2,3-triazol-4-yl)methanone], the IC50 worked out at 0.005 µM.

`O=C(c1c[nH]nn1)N1[C@@H]2CC[C@H]1[C@H]1CN(S(=O)(=O)c3ccccc3Cl)C[C@H]12` [Example 9, {(3aR,4S,7R,7aS)-2-[(2-chlorophenyl)sulfonyl]octahydro-1H-4,7-epiminoisoindol-8-yl}(1H-1,2,3-triazol-4-yl)methanone]: the IC50 is 0.004 µM.

As for `O=C(c1cnn[nH]1)N1C[C@@H]2[C@H](C1)[C@H]1CC[C@@H]2N1S(=O)(=O)c1ccc(F)cc1Cl` [Example 39, {(3aR,4R,7S,7aS)-8-[(2-chloro-4-fluorophenyl)sulfonyl]octahydro-2H-4,7-epiminoisoindol-2-yl}(1H-1,2,3-triazol-5-yl)methanone], the IC50 stood at 0.004 µM.

For the compound `O=C(c1cnn[nH]1)N1C[C@@H]2[C@H](C1)[C@H]1CC[C@@H]2N1S(=O)(=O)c1ccccc1` [Example 20, [(3aR,4R,7S,7aS)-8-(phenylsulfonyl)octahydro-2H-4,7-epiminoisoindol-2-yl](1H-1,2,3-triazol-5-yl)methanone], the IC50 stood at 0.045 µM.

In the case of `O=C(c1cnn[nH]1)N1C[C@@H]2[C@H](C1)[C@H]1CC[C@@H]2N1S(=O)(=O)c1cc(F)c(F)cc1F` [Example 52, 1H-1,2,3-triazol-5-yl{(3aR,4R,7S,7aS)-8-[(2,4,5-trifluorophenyl)sulfonyl]octahydro-2H-4,7-epiminoisoindol-2-yl}methanone], the IC50 came out at 0.021 µM.

As to `COc1ccc(C#N)cc1S(=O)(=O)N1[C@@H]2CC[C@H]1[C@@H]1CN(C(=O)c3cnn[nH]3)C[C@@H]12` [Example 66, 4-methoxy-3-{[(3aR,4R,7S,7aS)-2-(1H-1,2,3-triazol-5-ylcarbonyl)octahydro-1H-4,7-epiminoisoindol-8-yl]sulfonyl}benzonitrile], the IC50 came out at 0.625 µM.

Turning to `O=C(c1c[nH]nn1)N1C[C@@H]2[C@H](C1)[C@@H]1CC[C@H]2N1S(=O)(=O)c1cccc(F)c1` [Example 5, {(3aR,4S,7R,7aS)-8-[(3-fluorophenyl)sulfonyl]octahydro-2H-4,7-epiminoisoindol-2-yl}(1H-1,2,3-triazol-4-yl)methanone], the IC50 was determined as 0.026 µM.

For the compound `O=C(c1cnn[nH]1)N1[C@@H]2CC[C@H]1[C@H]1CN(S(=O)(=O)c3ccccc3C(F)(F)F)C[C@H]12` [Example 29, 1H-1,2,3-triazol-5-yl[(3aR,4S,7R,7aS)-2-{[2-(trifluoromethyl)phenyl]sulfonyl}octahydro-1H-4,7-epiminoisoindol-8-yl]methanone], the IC50 was 0.009 µM.

In the case of `O=C(c1cnn[nH]1)N1C[C@@H]2[C@H](C1)[C@@H]1CC[C@H]2N1S(=O)(=O)c1ccccc1C(F)(F)F` [Example 1, 1H-1,2,3-triazol-5-yl[(3aR,4S,7R,7aS)-8-{[2-(trifluoromethyl)phenyl]sulfonyl}octahydro-2H-4,7-epiminoisoindol-2-yl]methanone], the IC50 came to 0.002 µM.

In the case of `Cc1ccc(S(=O)(=O)N2[C@@H]3CC[C@H]2[C@H]2CN(C(=O)c4cnn[nH]4)C[C@H]23)cc1` [Example 21, {(3aR,4S,7R,7aS)-8-[(4-methylphenyl)sulfonyl]octahydro-2H-4,7-epiminoisoindol-2-yl}(1H-1,2,3-triazol-5-yl)methanone], the IC50 was found to be 0.327 µM.

As to `O=C(c1cnn[nH]1)N1C[C@@H]2[C@H](C1)[C@H]1CC[C@@H]2N1S(=O)(=O)c1cccc(Cl)c1Cl` [Example 42, {(3aR,4R,7S,7aS)-8-[(2,3-dichlorophenyl)sulfonyl]octahydro-2H-4,7-epiminoisoindol-2-yl}(1H-1,2,3-triazol-5-yl)methanone], the IC50 was found to be 0.007 µM.

On to `Cc1ccc(Br)cc1S(=O)(=O)N1[C@@H]2CC[C@H]1[C@@H]1CN(C(=O)c3cnn[nH]3)C[C@@H]12` [Example 55, {(3aR,4R,7S,7aS)-8-[(5-bromo-2-methylphenyl)sulfonyl]octahydro-2H-4,7-epiminoisoindol-2-yl}(1H-1,2,3-triazol-5-yl)methanone], for which the IC50 was 0.004 µM.
